The record followed here is PMC11853949 (European journal of medicinal chemistry, 2025).

For the test, the system named is Vγ9Vδ2 T cells exposed to compound-loaded K562 cells. Description: Vγ9Vδ2 T cell interferon γ ELISA with compound-loaded K562 cells. The test is classed as cell-based, human. To be noted: versus aryl amidate range 110-230 nM. On the technique in general: In an ELISA, binding on a coated surface is turned into a signal by an enzyme label.

For `C/C(=C\CCP(=O)(OCOC(=O)c1cn(-c2ccc(F)cc2)nn1)Oc1ccccc1)CO` (stereo not shown) [Compound 25b, (E)-(((5-Hydroxy-4-methylpent-3-en-1-yl)(phenoxy)phosphoryl)oxy)methyl-1-(4-fluorophenyl)-1H-1,2,3-triazole-4-carboxylate], the “fold more active than aryl amidates (1 hour cytokine EC50)” value is “more than 100 fold”.
